# Calls of active or inactive are those of the source. The calls are words filed in the database; no cut-off is given here.
# Tests used:
# Lichtheimia corymbifera = assay: Antifungal activity against Absidia corymbifera 272 after 24 to 48 hrs by two-fold dilution method; assay type: functional, organism-based
# Mycobacterium kansasii [1] = assay: Antimycobacterial activity against Mycobacterium kansasii CNCTC My 235/80 after 5 to 7 days by AlamarBlue assay; assay type: functional
# Enterococcus sp. [2] = assay: Antibacterial activity against Enterococcus sp. J 14365/08 clinical isolate after 24 to 48 hrs by broth microdilution method; assay type: functional, organism-based
# Pseudomonas aeruginosa = assay: Antibacterial activity against Pseudomonas aeruginosa CCM 1961 after 24 to 48 hrs by broth microdilution method; assay type: functional, organism-based
# [3] = system: Mycobacterium tuberculosis; assay: Antimycobacterial activity against Mycobacterium tuberculosis H37Rv CNCTC My 331/88 after 10 to 14 days by AlamarBlue assay; assay type: functional
# Staphylococcus aureus [4] = assay: Antibacterial activity against methicillin-resistant Staphylococcus aureus H 5996/08 clinical isolate after 24 to 48 hrs by broth microdilution method; assay type: functional, organism-based
# Aspergillus fumigatus = assay: Antifungal activity against Aspergillus fumigatus 231 after 24 to 48 hrs by two-fold dilution method; assay type: functional, organism-based
# [5] = system: Staphylococcus epidermidis; assay: Antibacterial activity against Staphylococcus epidermidis H 6966/08 clinical isolate after 24 to 48 hrs by broth microdilution method; assay type: functional, organism-based
# Klebsiella pneumoniae [6] = assay: Antibacterial activity against ESBL-positive Klebsiella pneumoniae J 14368/08 clinical isolate after 24 to 48 hrs by broth microdilution method; assay type: functional, organism-based
# Staphylococcus aureus [7] = assay: Antibacterial activity against Staphylococcus aureus CCM 4516/08 after 24 to 48 hrs by broth microdilution method; assay type: functional, organism-based
# Candida tropicalis = assay: Antifungal activity against Candida tropicalis 156 after 24 to 48 hrs by two-fold dilution method; assay type: functional, organism-based
# Escherichia coli = assay: Antibacterial activity against Escherichia coli CCM 4517 after 24 to 48 hrs by broth microdilution method; assay type: functional, organism-based
# Trichosporon asahii = assay: Antifungal activity against Trichosporon asahii 1188 after 24 to 48 hrs by two-fold dilution method; assay type: functional, organism-based
# Candida albicans = assay: Antifungal activity against Candida albicans ATCC 44859 after 24 to 48 hrs by two-fold dilution method; assay type: functional, organism-based
# [8] = Antimycobacterial activity against Mycobacterium avium subsp. avium Chester CNCTC My 80/72 after 5 days by AlamarBlue assay; assay type: functional; settings: Chester CNCTC My 80/72, 120 h
# Pichia kudriavzevii = assay: Antifungal activity against Candida krusei E28 after 24 to 48 hrs by two-fold dilution method; assay type: functional, organism-based
# Enterococcus sp. [9] = assay: Antibacterial activity against Enterococcus sp. after 24 to 48 hrs by broth microdilution method; assay type: functional
# Klebsiella pneumoniae [10] = assay: Antibacterial activity against Klebsiella pneumoniae D 11750/08 clinical isolate after 24 to 48 hrs by broth microdilution method; assay type: functional, organism-based
# [11] = system: Trichophyton mentagrophytes; assay: Antifungal activity against Trichophyton mentagrophytes 445 after 72 to 120 hrs by two-fold dilution method; assay type: functional, organism-based
# Nakaseomyces glabratus = assay: Antifungal activity against Candida glabrata 20/I after 24 to 48 hrs by two-fold dilution method; assay type: functional, organism-based
# [12] = system: Mycobacterium tuberculosis; assay: Antimycobacterial activity against Mycobacterium tuberculosis H37Rv CNCTC My 331/88 in Middlebrook 7H9 broth after 5 days by AlamarBlue assay; assay type: functional; settings: H37Rv CNCTC My 331/88, 120 h
# [13] = Antimycobacterial activity against Mycobacterium avium subsp. avium Chester CNCTC My 80/72 in Middlebrook 7H9 broth after 5 days by AlamarBlue assay; assay type: functional; settings: Chester CNCTC My 80/72, 120 h
# Mycobacterium kansasii [14] = assay: Antimycobacterial activity against Mycobacterium kansasii CNCTC My 235/80 in Middlebrook 7H9 broth after 5 days by AlamarBlue assay; assay type: functional; settings: CNCTC My 235/80, 120 h
SMILES,Activity (Lichtheimia corymbifera),MIC (Mycobacterium kansasii [1]),Activity (Enterococcus sp. [2]),Activity (Pseudomonas aeruginosa),MIC [3],Activity (Staphylococcus aureus [4]),Activity (Aspergillus fumigatus),Activity [5],Activity (Klebsiella pneumoniae [6]),Activity (Staphylococcus aureus [7]),Activity (Candida tropicalis),Activity (Escherichia coli),Activity (Trichosporon asahii),Activity (Candida albicans),MIC [8] [µg/mL],Activity (Pichia kudriavzevii),Activity (Klebsiella pneumoniae [10]),Activity [11],Activity (Nakaseomyces glabratus),MIC [12],also measured
CCCCCCNc1cnc(C(=O)Nc2ccccc2Cl)cn1,inactive,> 100 µg/mL,inactive,inactive,> 100 µg/mL,inactive,inactive,inactive,inactive,inactive,inactive,inactive,inactive,inactive,> 100,inactive,inactive,inactive,inactive,–,Activity (Enterococcus sp. [9]): Active
NNC(=O)c1ccncc1 [ISONIAZID],–,11.4 µM,–,–,1.5 µM,–,–,–,–,–,–,–,–,–,12.5,–,–,–,–,–,–
CCCNc1cnc(C(=O)Nc2ccccc2Cl)cn1,inactive,> 100 µg/mL,inactive,inactive,> 100 µg/mL,inactive,inactive,inactive,inactive,inactive,inactive,inactive,inactive,inactive,> 100,inactive,inactive,inactive,inactive,–,Activity (Enterococcus sp. [9]): Active
CCCNc1cnc(C(=O)Nc2ccccc2)cn1,inactive,48.8 µM,inactive,inactive,12.2 µM,inactive,inactive,inactive,inactive,inactive,inactive,inactive,inactive,inactive,> 100,inactive,inactive,inactive,inactive,–,Activity (Enterococcus sp. [9]): Active
NC(=O)c1cnccn1 [PYRAZINAMIDE],–,> 100 µg/mL,–,–,50.8 µM,–,–,–,–,–,–,–,–,–,> 100,–,–,–,–,–,–
CCCCCCCCNc1cnc(C(=O)Nc2ccccc2)cn1,inactive,> 100 µg/mL,inactive,inactive,9.6 µM,inactive,inactive,inactive,inactive,inactive,inactive,inactive,inactive,inactive,> 100,inactive,inactive,inactive,inactive,–,MIC (Enterococcus sp. [9]): 62.5 µM
CCCCCCCCNc1cnc(C(=O)Nc2ccccc2Cl)cn1,inactive,> 25 µg/mL,inactive,inactive,> 25 µg/mL,inactive,inactive,inactive,inactive,inactive,inactive,inactive,inactive,inactive,> 25,inactive,inactive,inactive,inactive,–,Activity (Enterococcus sp. [9]): Active
O=C(Nc1ccccc1)c1cnc(NCCO)cn1,inactive,–,inactive,inactive,–,inactive,inactive,inactive,inactive,inactive,inactive,inactive,inactive,inactive,–,inactive,inactive,inactive,inactive,> 100 µg/mL,MIC [13]: > 100 µg/mL; MIC (Mycobacterium kansasii [14]): > 100 µg/mL
O=C(Nc1ccccc1Cl)c1cnc(Cl)cn1,–,–,–,–,2 µM,–,–,–,–,–,–,–,–,–,> 100,–,–,–,–,–,–
COCCNc1cnc(C(=O)Nc2ccccc2)cn1,inactive,–,inactive,inactive,–,inactive,inactive,inactive,inactive,inactive,inactive,inactive,inactive,inactive,–,inactive,inactive,inactive,inactive,184 µM,MIC [13]: > 100 µg/mL; MIC (Mycobacterium kansasii [14]): > 100 µg/mL
O=C(Nc1ccccc1Cl)c1cnc(NCCCCO)cn1,inactive,–,inactive,inactive,–,inactive,inactive,inactive,inactive,inactive,inactive,inactive,inactive,inactive,–,inactive,inactive,inactive,inactive,> 100 µg/mL,MIC [13]: > 100 µg/mL; MIC (Mycobacterium kansasii [14]): > 100 µg/mL
O=C(Nc1ccccc1Cl)c1cnc(NCCc2ccccc2)cn1,inactive,–,inactive,inactive,–,inactive,inactive,inactive,inactive,inactive,inactive,inactive,inactive,inactive,–,inactive,inactive,inactive,inactive,> 100 µg/mL,MIC [13]: > 100 µg/mL; MIC (Mycobacterium kansasii [14]): > 100 µg/mL
O=C(Nc1ccccc1)c1cnc(NCCCO)cn1,inactive,–,inactive,inactive,–,inactive,inactive,inactive,inactive,inactive,inactive,inactive,inactive,inactive,–,inactive,inactive,inactive,inactive,> 100 µg/mL,MIC [13]: > 100 µg/mL; MIC (Mycobacterium kansasii [14]): > 100 µg/mL

# — ChEMBL document CHEMBL3352247, “Synthesis and antimycobacterial evaluation of 5-alkylamino-N-phenylpyrazine-2-carboxamides” (Bioorg Med Chem, 2015)
